{"source": "patent US20070054353A1", "about": "“Nuclear receptor transcriptional corepressor and uses thereof” (priority 2002, published 2007)", "key": {"CtBP1": {"molecular_target": "T1, CtBP1 (Homo sapiens, UniProt Q13363)", "T1 construct": "made in house; host or cells: CtBP1 by in vitro translation", "assay": "GST pull-down of in vitro translated CtBP1 with GST-LCoR", "type": "binding", "procedure": "GST pull-down assays were performed as described (Eng, F.C.S. et al. (1998) J. Biol. Chem., 273, 28371-7), with the exception that assays performed with in vitro translated ER378 included two more washes made with the GST buffer containing 150 mM NaCl. For immunoprecipitations of tagged proteins, COS-7 cells in 100 mm dishes were transfected with 6 μg of HA-LCOR and/or 6 μg of HA-Flag-HDAC6 or with 6 μg of Flag-LCoR and/or 6 μg of HA-HDAC3 and pSG5 carrier. 48 h after transfection, cells were lysed 30 min at […] in 1 ml of JLB (20 mM Tris-HCl, pH8, 150 mM KCl, 10% glycerol, 0.1% IGEPAL CA-630, and complete protease inhibitor cocktail; Boehringer-Mannheim, Laval, Qc). Cell debris were pelleted by centrifugation (14,000 rpm, 5 min), and proteins immunoprecipitated from 600 μl of supernatant by incubation for 1 h at 4° C. with 4 μg of α-Flag M2 antibody or polyclonal anti-HDAC3, followed by overnight incubation with protein A+G agarose or protein-A agarose beads for anti-Flag, and anti-HDAC3, respectively. Beads were washed (3×) with JLB. Bound immunocomplexes were boiled in Laemmli buffer, separated by 10% SDS/PAGE, and blotted on PVDF membrane with α-Flag M2-peroxidase, α-HDAC3, α-HA-peroxidase (1:500), and detected by enhanced chemiluminescence (NEN Life Science Products, Boston, Mass.). […]"}, "HDAC6": {"tested_on": "HDAC6", "assay": "ERα-dependent CAT reporter with LCoR and HDAC6 cotransfection in MCF-7 cells", "type": "cell-based, human", "details": "estradiol 10 nM, TSA 500 nM, trapoxin 50 nM", "procedure": "All cells were cultured under the recommended conditions. For immunocytochemistry, COS-7 cells grown on collagen IV-treated microscope slides in 6-well plates in DMEM, supplemented with 10% FBS were transfected in medium without serum with 12.5 μl of lipofectamine 2000 (Invitrogen, Burlington, Ont.) containing 1 μg each of pSG5/LCoR and HA-Flag-HDAC6/pcDNA3. Medium was replaced 24 h after transfection and cells were prepared for immunocytochemistry after 48 h as described below. For immunoprecipitation of tagged proteins, MCF-7 cells in 100 mm dishes were transfected with 10 μl of lipofectamine containing 10 μg of pSG5 vectors containing Flag-LCoR, Flag-m1, Flag-m2 or Flag-m1+2. For analysis of the effects of HDACs 3 or 6 on LCoR corepression, COS-7 cells (60-70% confluent) grown in DMEM without phenol red, supplemented with 10% FBS on 6-well plates were transfected in medium without serum with lipofectamine 2000 (Invitrogen, Burlington, Ontario, Canada) with 100 ng of ERα expression vectors as indicated, 300 ng of LCoR/pSG5, 300 ng of HA-HDAC3/pCDNA3.1 or […], 250 ng of ERE3-TATA-CAT reporter plasmid, 250 ng of internal control vector pCMV-βgal, and pBluescript carrier DNA to 4 μg. Medium was replaced 18 hr after transfection by a medium containing charcoal-stripped serum and ligand (10 nM) for 30 hr, as indicated. […]"}, "[1]": {"molecular_target": "T2, interaction of LCoR and ERα (Homo sapiens, UniProt P03372)", "T2 construct": "expressed in transfected cells; host or cells: COS-7", "T2 sequence (P03372 1-595)": "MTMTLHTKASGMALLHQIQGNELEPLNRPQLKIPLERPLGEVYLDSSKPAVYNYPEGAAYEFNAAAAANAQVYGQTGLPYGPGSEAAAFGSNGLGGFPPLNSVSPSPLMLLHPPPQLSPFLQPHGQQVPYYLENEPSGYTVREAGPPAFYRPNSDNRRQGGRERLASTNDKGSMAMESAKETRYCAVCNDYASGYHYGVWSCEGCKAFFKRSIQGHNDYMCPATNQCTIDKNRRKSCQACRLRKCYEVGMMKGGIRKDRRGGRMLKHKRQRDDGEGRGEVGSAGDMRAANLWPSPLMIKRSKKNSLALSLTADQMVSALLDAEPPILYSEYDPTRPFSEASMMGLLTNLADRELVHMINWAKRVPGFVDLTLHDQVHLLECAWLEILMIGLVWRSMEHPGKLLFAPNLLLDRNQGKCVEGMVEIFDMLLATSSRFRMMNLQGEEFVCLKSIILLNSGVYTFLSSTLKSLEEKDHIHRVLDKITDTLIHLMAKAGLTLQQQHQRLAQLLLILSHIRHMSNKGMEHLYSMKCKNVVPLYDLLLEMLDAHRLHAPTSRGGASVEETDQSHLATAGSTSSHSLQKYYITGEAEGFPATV", "assay": "BRET assay of LCoR-ERα interaction in living COS-7 cells", "type": "cell-based", "details": "10^−7M ligand, COS-7 cells cotransfected with ERα-EYFP and LCoR-rluc", "procedure": "Readings were started immediately after coelenterazine H addition, and 10 repeated measures were taken.\nInteraction of ERα and LCoR in vivo was further tested by bioluminescence resonance energy transfer (BRET) in living COS-7 cells transiently cotransfected with plasmids expressing ERα-EYFP and LCoR-rluc fusion proteins. […] BRET ratios were calculated as described in experimental procedures."}, "ERα LBD": {"molecular_target": "T3, ERα LBD (Homo sapiens, UniProt P03372)", "T3 construct": "the ERα LBD fused to GST (GST-ERα-LBD); made in house; LCoR by in vitro translation", "T3 sequence (P03372 311-547 limits assumed)": "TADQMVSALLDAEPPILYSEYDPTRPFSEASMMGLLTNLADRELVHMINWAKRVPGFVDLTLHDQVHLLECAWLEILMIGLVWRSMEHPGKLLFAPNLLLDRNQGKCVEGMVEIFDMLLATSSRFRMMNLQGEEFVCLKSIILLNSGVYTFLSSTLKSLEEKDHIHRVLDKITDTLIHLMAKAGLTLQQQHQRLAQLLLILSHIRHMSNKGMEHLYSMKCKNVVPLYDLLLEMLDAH", "assay": "GST pull-down of in vitro translated LCoR with GST-ERα LBD", "type": "binding", "details": "ligand added to 10^−6 M"}}, "note": "Where a SMILES comes first, the peptide text is derived from it. [ ]: non-standard residue; d: D form. Aoe = N[C@@H](CCCCCC(=O)[C@@H]1CO1)C(=O)O", "data": [{"compound": "NC(=O)C1=CN([C@@H]2O[C@H](COP(=O)(O)OP(=O)(O)OC[C@H]3O[C@@H](n4cnc5c(N)ncnc54)[C@H](O)[C@@H]3O)[C@@H](O)[C@H]2O)C=CC1", "note": "[NADH]", "values": [{"measurement": "effect on interaction of CtBP1 with LCoR in vitro", "setting": "CtBP1", "value": "no effect"}]}, {"compound": "O=C1N[C@@H](Cc2ccccc2)C(=O)N2CCC[C@@H]2C(=O)N[C@@H](CCCCCC(=O)[C@@H]2CO2)C(=O)N[C@H]1Cc1ccccc1", "note": "[trapoxin] (cyclo(FF[dP][Aoe]))", "values": [{"measurement": "effect on HDAC6 repression / enhancement of LCoR corepression of ERα transactivation", "setting": "HDAC6", "value": "not"}]}, {"compound": "4-hydroxytamoxifen", "values": [{"measurement": "effect on BRET ratio", "setting": "[1]", "value": "no significant effect"}, {"measurement": "induction of interaction of LCoR with ERα", "setting": "ERα LBD", "value": "did not induce interaction"}]}]}
